Measurements as given in article PMC8000760, “Potential Effect of Pseudevernia furfuracea (L.) Zopf Extract and Metabolite Physodic Acid on Tumour Microenvironment Modulation in MCF-10A Cells” (Biomolecules, 2021).

Assays:
[1] = system: N-cadherin, fibronectin, α-SMA, Slug in BJ-5ta; assay: Western blot of mesenchymal markers in TGF-β-stimulated fibroblasts; format: cell-based; conditions: TGF-β-stimulated BJ-5ta, 48 and 72 h, time- and dose-dependent manner
Protocol: (§1) The MCF-10A and BJ-5ta cells were seeded and cultivated for 24 h in a complete medium. One day after seeding, 30 ng/mL of TGF-β was added and cultivated for 7 days (d). TGF-β was added to induce epithelial–mesenchymal transition in tested cell lines. Lichen extract P. furfuracea (L.) Zopf and its metabolite physodic acid were added at time 0 h and then incubated for 24, 48 and 72 h for various analyses, as described in Figure 1.
(§2) Proteins isolated from MCF-10A and BJ-5ta cell lysates were determined by the Pierce® BCA Protein Assay Kit (Thermo Scientific, Rockford, IL, United States), using bovine serum albumin (BSA) as the standard, and measured by an automated Cytation™ 3 Cell Imaging Multi-Mode Reader (Biotek) at a wavelength of 570 nm. Proteins were separated on SDS-PAA gel (12%) at 100 V for 2 h and then transferred to a polyvinylidene difluoride (PVDF) membrane using the iBlot dry blotting system (Thermo Scientific, Rockford, IL, United States). […] After incubation, the membrane was again washed in TBS-Tween (3 × 5 min), and the expression of the protein was detected using a chemiluminescent ECL substrate (Thermo Fisher Scientific) and MF-ChemiBIS 2.0 Imaging System (DNR BIO-Imaging Systems, Jerusalem, Israel). The detected band was then analysed densitometrically using the Image Studio Lite software (LI-COR Biosciences, Lincoln, NE, USA). […]

[2] = system: fibronectin in TGF-β-stimulated MCF-10A cells; assay: Fibronectin expression, immunofluorescence; format: cell-based, human; conditions: IC10, TGF-β-stimulated MCF-10A
Protocol: as §1
The MCF-10A cells at a density of 2 × 10^3/cm^2, plated on 22 mm^2 glass coverslips, were stimulated for 7 days with 30 ng/mL of TGF-β. […] After treatment, cells were washed with PBS, fixed with 4% paraformaldehyde (pH 7.2) for 10 min, permeabilised by 0.1% Triton X-100 (Sigma-Aldrich) for 10 min at RT and then washed three) times with PBS for 5 min. Glass coverslips were then incubated with Swine serum (1:30) for 30 min for blocking non-specific binding. Primary antibodies were diluted according to the manufacturer’s instructions (Table 2) and transferred to coverslips for 90 min. […] All coverslips were mounted in Vectashield (Cole-Parmer, Illinois, USA) and immunofluorescence pictures were taken with the same exposition settings by the Nikon Eclipse 90i fluorescence microscope (Nikon, Tokyo, Japan) equipped with filter cubes for FITC and DAPI. Images were then analysed using ImageJ (NIH) software.

E-cadherin in BJ-5ta = assay: Western blot of E-cadherin in TGF-β-stimulated fibroblasts; format: cell-based; conditions: TGF-β-stimulated BJ-5ta, 48 and 72 h
Protocol: as §1, §2

**Q.** How did the mesenchymal markers expression [1] turn out when `CCCCCC(=O)Cc1cc(O)cc2c1C(=O)Oc1cc(O)c(C(=O)O)c(CCCCC)c1O2` [Phy, physodic acid] was run?
**A.** significantly decrease

**Q.** And the “fibronectin expression, immunofluorescence” value [2]?
**A.** downregulation

**Q.** And the “expression of epithelial marker E-cadherin” value (E-cadherin in BJ-5ta)?
**A.** did not significantly change
